Measured values reported in patent publication US20040096941A1, “Receptor for plant cell growth factor” (priority 2002, published 2004).
Square brackets hold non-standard residues; d marks the D form. Side chains are listed from the residue outwards. Ends that are not written are not given here. Peptide text beside a SMILES is read from it. sY = N[C@@H](Cc1ccc(OS(=O)(=O)O)cc1)C(=O)O; Ahx = NCCCCCC(=O)O

Tests used:
[1] = molecular target: T1, PSK receptor (120-kD receptor kinase) (Daucus carota, UniProt Q8LPB4); assay: specific binding of PSK to membrane fractions, Scatchard plot; parameters: species or system carrot
T1 construct: The inserted portion (i.e., full length cDNA) in the positive phage was subcloned to pBS vector; expressed in transfected cells; host or cells: transgenic carrot cells (sense transformant, pBI121, CaMV 35S promoter); membrane fraction
T1 sequence (Q8LPB4 25-1021): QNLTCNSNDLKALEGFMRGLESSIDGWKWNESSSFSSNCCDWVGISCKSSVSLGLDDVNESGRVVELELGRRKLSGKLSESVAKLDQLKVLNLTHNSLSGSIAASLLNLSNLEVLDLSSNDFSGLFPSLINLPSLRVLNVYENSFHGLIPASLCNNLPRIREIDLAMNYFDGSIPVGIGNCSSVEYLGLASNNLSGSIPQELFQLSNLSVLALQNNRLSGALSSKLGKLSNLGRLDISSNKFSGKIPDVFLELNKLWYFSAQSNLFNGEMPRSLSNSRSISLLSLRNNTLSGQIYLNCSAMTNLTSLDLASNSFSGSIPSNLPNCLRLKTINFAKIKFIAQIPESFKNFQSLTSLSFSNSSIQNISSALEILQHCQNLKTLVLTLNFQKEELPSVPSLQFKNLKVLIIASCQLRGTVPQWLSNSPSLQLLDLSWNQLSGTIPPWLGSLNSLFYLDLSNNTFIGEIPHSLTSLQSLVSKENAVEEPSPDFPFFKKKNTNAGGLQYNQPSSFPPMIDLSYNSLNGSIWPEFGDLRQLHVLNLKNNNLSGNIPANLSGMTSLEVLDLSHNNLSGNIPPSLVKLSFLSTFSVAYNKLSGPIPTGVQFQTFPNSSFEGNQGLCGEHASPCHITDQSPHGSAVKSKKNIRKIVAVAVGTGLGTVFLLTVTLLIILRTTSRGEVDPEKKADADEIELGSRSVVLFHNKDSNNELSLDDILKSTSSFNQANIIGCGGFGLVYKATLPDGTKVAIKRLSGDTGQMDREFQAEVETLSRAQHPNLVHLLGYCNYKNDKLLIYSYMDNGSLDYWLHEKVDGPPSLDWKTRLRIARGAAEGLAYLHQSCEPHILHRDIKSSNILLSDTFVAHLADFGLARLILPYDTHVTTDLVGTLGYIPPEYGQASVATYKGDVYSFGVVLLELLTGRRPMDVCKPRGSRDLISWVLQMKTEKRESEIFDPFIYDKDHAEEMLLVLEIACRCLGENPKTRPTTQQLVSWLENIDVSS

[2] = molecular target: T1, PSK receptor (120-kD receptor kinase); assay: inhibition of [3H]PSK binding to the membrane fraction of the sense transformant by unlabelled competitors; parameters: species or system carrot; settings: 6.3 nM [3H]PSK, 3.2 μM unlabelled competitor
Protocol: The specificity of the PSK binding activity was characterized by comparing the relative binding affinity for several PSK analogs. […] The membrane proteins were incubated in binding buffer containing 6.3 nM [^3H]PSK and 3.2 μM of the competitor .

[3] = tested on: transgenic carrot cells overexpressing the receptor protein (sense transformants); assay: callus growth of transgenic carrot cells in response to PSK; type: cell-based; settings: 10 nM PSK, 3 weeks on B5 media with NAA 1.0 mg/liter and 6-BA 0.5 mg/liter
Protocol: The chimeric genes were composed of the receptor kinase ORF, in the sense or antisense orientation, under the control of the constitutive cauliflower mosaic virus 35S promoter incorporated within the binary vector pBI 121. Transformation of carrot hypocotyl segments and plant regeneration were performed following a protocol described elsewhere (M. Hardegger, A. Sturm, Mol. Breed. 4, 119 (1998)). Carrot cells transformed with the binary vector alone were used as controls. Analysis of variance of the growth data was carried out using the Student's t-test procedure of the Prism software (GraphPad Software).
The cDNA of the aforementioned protein was overexpressed in transgenic carrot cells, in sense orientation, under the control of the cauliflower mosaic virus 35S promoter. […] These phenotypes are consistent with the hypothesis that overexpression and antisense inhibition of this receptor protein alter the responsive property of carrot cells to PSK. FIGS. 6A to 6C show the callus growth of the sense transformants, the control cells, and antisense transformants exposed to 10 nM PSK, respectively. The transformed carrot cells and the control cells were cultured for 3 weeks on B5 media containing naphthaleneacetic acid (NAA, 1.0 mg/liter), 6-benzylamino purine (6-BA, 0.5 mg/liter), and 10 nM PSK. The scale bar in FIG. 6C represents 1 cm.

[4] = molecular target: PSK receptor protein (120-kD receptor kinase of carrot) (carrot) (UniProt Q8LPB4); assay: [3H]PSK saturation binding to membrane fractions of sense transformants, Scatchard plot
[5] = molecular target: PSK receptor protein (120-kD receptor kinase of carrot) (carrot) (UniProt Q8LPB4); assay: [3H]PSK saturation binding to membrane fractions of control carrot cells (endogenous receptor), Scatchard plot
[6] = molecular target: T2, PSK receptor protein (120-kD receptor kinase of carrot) (carrot, UniProt Q8LPB4 25-1021, N-linked oligosaccharide chains of approximately 10 kD (cleaved by PNGase F)); assay: affinity chromatography on [Lys5]PSK-Sepharose, elution with PSK, SDS-PAGE
T2 construct: Assayed in membrane fractions of carrot cells (sense transformants overexpressing the ORF; control cells with the endogenous protein) or solubilized from carrot NC cell microsomal membranes; also called phytosulfokine receptor; 120-kD protein
T2 sequence: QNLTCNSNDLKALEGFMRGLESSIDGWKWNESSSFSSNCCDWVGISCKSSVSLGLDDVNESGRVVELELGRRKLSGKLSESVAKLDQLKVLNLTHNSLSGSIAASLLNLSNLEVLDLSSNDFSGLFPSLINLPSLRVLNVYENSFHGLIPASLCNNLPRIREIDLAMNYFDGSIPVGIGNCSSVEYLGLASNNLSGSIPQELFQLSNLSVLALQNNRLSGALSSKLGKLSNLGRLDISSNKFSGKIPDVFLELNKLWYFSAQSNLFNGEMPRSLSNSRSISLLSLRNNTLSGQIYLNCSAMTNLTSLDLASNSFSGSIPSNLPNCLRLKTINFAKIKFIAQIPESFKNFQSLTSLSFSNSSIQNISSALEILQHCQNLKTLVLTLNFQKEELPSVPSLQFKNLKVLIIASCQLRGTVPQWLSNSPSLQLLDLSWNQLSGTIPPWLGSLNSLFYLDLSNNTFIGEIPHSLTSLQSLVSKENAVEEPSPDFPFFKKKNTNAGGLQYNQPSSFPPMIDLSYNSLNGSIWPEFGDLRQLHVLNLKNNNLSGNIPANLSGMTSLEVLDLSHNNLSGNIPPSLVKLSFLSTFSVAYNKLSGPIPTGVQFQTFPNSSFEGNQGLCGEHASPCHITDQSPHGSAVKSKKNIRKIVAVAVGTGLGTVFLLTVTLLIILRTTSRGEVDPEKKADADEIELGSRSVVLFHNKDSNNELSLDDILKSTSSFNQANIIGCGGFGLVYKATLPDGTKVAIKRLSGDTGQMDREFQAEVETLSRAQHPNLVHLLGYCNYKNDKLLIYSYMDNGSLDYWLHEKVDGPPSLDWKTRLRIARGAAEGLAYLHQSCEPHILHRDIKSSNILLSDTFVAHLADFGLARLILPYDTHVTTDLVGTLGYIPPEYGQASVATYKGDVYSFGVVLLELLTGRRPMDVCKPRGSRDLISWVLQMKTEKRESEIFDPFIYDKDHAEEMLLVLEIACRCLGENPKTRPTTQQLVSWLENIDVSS
Protocol: Carrot microsomal membranes (1,200 mg protein) were solubilized in 320 ml of buffer containing 20 mM HEPES-KOH (pH 7.5), 50 mM KCl, and 1.0% Triton X-100 (buffer A). Solubilized materials were centrifuged at 100,000 g for 30 min at 4° C., and supernatants were applied to the [Lys⁵]PSK-Sepharose column (5.0 ml) at a flow rate of 0.5 ml/min using the AKTA prime chromatography system (Amersham Pharmacia Biotech). After washing with 50 ml of buffer containing 20 mM HEPES-KOH (pH 7.5), 50 mM KCl, and 0.1% Triton X-100 (buffer B), the column was eluted with 15 ml of 1.0 mg/ml PSK in buffer B. The eluates were added to a 1.0-ml column of Macro-Prep Ceramic Hydroxyapatite Type I (Bio-Rad laboratories) at a flow rate of 0.5 ml/min at 4° C. The column was washed with 20 ml of buffer B and eluted with a 18-ml gradient of KH₂PO₄ (0 to 400 mM) in buffer B. Active fractions (12 ml), as determined by [³H]PSK binding assay, were concentrated by ultrafiltration (Ultrafree-15 with Biomax-10 membranes, Millipore) and analyzed by SDS-PAGE using 7.5% gels (Y. Matsubayashi, Y. Sakagami, Eur. J. Biochem. 262, 666 (1999)).
The PSK-binding proteins were purified with [Lys⁵] PSK-Sepharose column. The purified proteins were further purified by hydroxyapatite column chromatography, concentrated and subjected to SDS-PAGE and Nile red staining.

[7] = membrane fractions of control cells (binary vector alone)
[8] = membrane fractions of sense transformant

CC[C@H](C)[C@H](NC(=O)[C@@H](N)Cc1ccc(OS(=O)(=O)O)cc1)C(=O)N[C@@H](Cc1ccc(OS(=O)(=O)O)cc1)C(=O)N[C@H](C(=O)N[C@@H](CCC(N)=O)C(=O)O)[C@@H](C)O [PSK, phytosulfokine] (H-[sY]I[sY]TQ-OH; N-terminus and C-terminus assumed)
Bmax (maximum number of binding sites) [1, 7]: 34±2 fmol per mg of membrane protein
Kd [1, 7]: 4.8 ± 1.1 nM
Bmax (maximum number of binding sites) [1, 8]: 570±18 fmol per mg of membrane protein
Kd [1, 8]: 4.1 ± 0.5 nM
inhibition of binding of [3H]PSK to the membrane fraction of the sense transformant [2]: strongly inhibited
callus growth in response to PSK, compared with control cells [3]: accelerated growth

[1-4]PSK: less active analog of PSK (YIYT)
inhibition of binding of [3H]PSK to the membrane fraction of the sense transformant [2]: less strongly inhibited

phytosulfokine (PSK) (peptide)
Bmax (fmol per mg of membrane protein) [4]: 570
Bmax (fmol per mg of membrane protein) [5]: 34

B1: [Lys5]PSK-Sepharose (peptide)
peptide: [sY]I[sY]TK([Ahx-Ahx-Ahx-Sepharose])
modifications: also: Lys5 side chain coupled via Ahx spacer to Sepharose
binding result [6]: binds
